According to patent US20220378763A1, “COMPOUND FOR TREATMENT OF ACUTE INFLAMMATION IN THE MYOCARDIUM” (CALPROTECT AB, priority 2019, published 2022):

Legend:
[1] = tested on: C57BL/6 mice with induced MI; assay: Flow cytometry of myeloid cells and reparatory macrophages on day 7 post-MI; type: in vivo, mouse; settings: for Intra-myocardial counts of reparatory macrophages vs PBS-treated MI controls: hearts collected 7 days post-MI
Procedure: Immune cells from blood, spleen, heart and bone-marrow were collected at 2 or 7 days post-MI, and analysed by flow-cytometry. Mice were anesthetized by intraperitoneal injection of a mixture of xylazine (10 mg/kg) and ketamine (100 mg/kg). After 10 minutes, blood was collected by cardiac punction. Thereafter, the spleen was removed and the heart was perfused with 5 ml ice-cold PBS. Perfused hearts were excised and collected into tubes with PBS and kept on ice. Femurs and tibias from each mouse were used to obtain whole bone marrow for analysis. Blood was stained with fluorochrome-labelled antibodies against mouse monocyte and neutrophil markers diluted in MACS buffer (PBS, 10% FCS and 0.5% BSA), followed by treatment with erythrocyte lysis buffer, washing and analysis. Spleens were mashed trough a cell strainer in ice-cold PBS. Hearts were cut into small pieces and placed into tubes containing 2.5 ml digestion cocktail (Collagenase I, 450 U/ml; Collagenase XI, 125 U/ml; DNAase I, 60 U/ml; Hyaluronidase type 1-5, 60 U/ml diluted in PBS containing Ca and Mg) incubated for 1 h at 37° C. with shaking at 220 rpm. Bone marrow was flushed from femur and tibia using ice-cold PBS. Cell suspensions from spleen, heart and bone marrow were filtered through a 40 um cell strainer (BD), treated with erythrocyte lysis buffer, washed and stained. For intracellular staining, cells were fixed, permeabilized and stained. Cell populations were analyzed by flow cytometry in a Gallios Flow Cytometer (Backman Coulter), and the results were analyzed using FlowJo (FlowJo®, LLC; Tree Star). The following anti-mouse antibodies were used for the flow cytometric analysis: anti-CD45 (30-F11), anti-CD11b (M1/70), anti-Ly6C (HK1.4), anti-CD115 (AFS98), anti-Ly6G (1A8), anti-F4/80 (BM8), anti-CCR2 (475301), anti-Ter119 (TER119), anti-Gr1 (RB6-8C5), anti-CD45R/B220 (RA3-6B2), anti-CD3ξ (145-2C11), anti-NK1.1 (PK136), anti-Ly6A/E (Sca-1) (E13-1617), anti-CD117 (c-kit) (2B8), anti-CD48 (HM48.1), anti-CD150/SLAM (TC15-12F12.2), anti-CD16/32 (93), anti-CD34 (MEC14.7) (all from BioLegend, San Diego, Calif., USA); anti-MerTK (DSSMMER) and anti-Nur77 (12.14) (eBioscience).
MI induction and other procedures were carried out as outlined in Example 2. For long-term experiments of up to 21 days, a daily dose of 30 mg/Kg ABR-238901 was diluted in PBS and administered by daily i.p. injections for the first 3 days post-MI until the mice recovered and started to drink normally, and thereafter p.o. ad-libitum in meglumine buffer (FIG. 4A). Adequate treatment dosage was ensured by closely monitoring daily fluid intake.
In an attempt to explain these intriguing results, we assessed the effects of the extended treatment on the presence of myeloid cells in blood, spleen, bone marrow and myocardium, with particular emphasis on cellular populations involved in myocardial repair. The cellular infiltration was analysed by flow cytometry on day 7, at the peak of the reparatory post-MI period. […] Reparatory macrophages in the ischemic myocardium have previously been defined as CD11b^+F4/80^+Ly6C^lo cells. […] In order to investigate the possible mechanisms leading to impaired cardiac function in mice receiving long-term S100A9 blockade, we examined the presence and function of Ly6C^loMerTK^hi macrophages in the myocardium at 7 days post-MI. We found an approximately 50% reduction of the number of reparatory macrophages in hearts of mice receiving ABR-238901 compared to controls (FIG. 40). […] In order to test the functional importance of these findings, we used α-MHC-mCherry mice expressing cardiac-specific red fluorescent Cherry protein under the mouse a-myosin heavy-chain promoter.
Reparatory macrophage numbers were analysed in hearts collected at 7 days post-MI from mice with induced MI treated with ABR-238901 for 3 or 7 days.

[2] = tested on: Nur77 in bone marrow-derived monocytes; assay: Nur77 expression in cultured bone marrow-derived monocytes stimulated with S100A9; type: cell-based, mouse; settings: S100A9 20 μg/mL, ABR-238901 100 μM, 24 h
Procedure: To obtain bone marrow-derived monocytes, bone marrow cells were isolated from femur and tibia of wild-type mice (C57BL/6NRJ) (n=3). Cells were cultured in RPMI-1640 (GIBCO Invitrogen) with 100 U/ml penicillin/streptomycin (GIBCO Invitrogen), 10% heat-inactivated fetal calf serum (FCS; GIBCO Invitrogen) and 20 ng/ml M-CSF (Peprotech) for 3 days. On day 3, unattached cells were collected, and the monocyte phenotype was confirmed by flow cytometry as CD45^+CD11b^+CD115^+ cells. The cells were re-suspended in medium and seeded at a density of 1×10^5 cells/ml. Extracellular S100A9 (20 μg/mL) with or without the S100A9 antagonist ABR-238901 at a concentration of 100 μM were incubated in the presence of 10 μM ZnCl2 (Sigma) and 2 mM CaCl2 for 15 minutes and added to the monocyte culture. Recombinant human endotoxin-free S100A9 protein was provided by Active Biotech AB. Following 24 h stimulation, intracellular Nur77 expression was analysed by flow cytometry.

[3] = treatment for 7 days, 7 days post-MI

## COc1ncc(S(=O)(=O)Nc2cncc(Cl)c2O)cc1Br [ABR-238901, 5-bromo-N-(5-chloro-4-hydroxypyridin-3-yl)-6-methoxypyridine-3-sulfonamide]
[1]; 3 days treatment
  Intra-myocardial counts of reparatory macrophages vs PBS-treated MI controls: on par with
[1]; continuous treatment for 7 days
  Intra-myocardial counts of reparatory macrophages vs PBS-treated MI controls: significantly lower
[1]; [3]
  Percentage of reparatory Ly6CloMerTKhi out of total CD11b+F4/80+ macrophages: significantly decreased
  Reduction of the number of reparatory Ly6CloMerTKhi macrophages in hearts vs controls: approximately 50%
[1]; treatment for 7 days, day 7
  Cell counts in the bone marrow: no differences
  Monocytes in the spleen vs MI controls: accumulation
  Numbers of circulating monocytes: significantly lower
  Numbers of circulating neutrophils: significantly lower
  Numbers of neutrophils in the spleen: not significantly affected
  Presence of monocytes in the heart: potently reduced
  Presence of total CD11b+F4/80+ macrophages in the heart: potently reduced
[2]
  S100A9-induced increase of Nur77 expression: inhibited
